Assay results taken from ChEMBL document CHEMBL3885861, “Open TG-GATES”.

Species on record: Rattus norvegicus
Assay: Open TG-GATES - Regimen: Single
Type: toxicity, organism-based, Sprague-Dawley
Parameters: regimen Single, gender Male, age 6 weeks
Conditions: in vivo, po, 45 mg/kg, route gavage, dose level High; for APTT / Bas / Eos / Fbg / Hb / Ht / Lym / MCH / MCHC / MCV / Mono / Neu / PT / Plat / RBC / Ret / WBC: tissue Blood; for KIDNEY_L / KIDNEY_R / KIDNEY_TOTAL: tissue Kidney; for LIVER: tissue Liver; for A/G / ALP / ALT / AST / BUN / CRE / Ca / Cl / DBIL / GLC / IP / K / LDH / Na / PL / RALB / TBIL / TC / TG / TP / gamma-GTP: tissue Plasma

CC(=N)S [THIOACETAMIDE]
TERMINAL_BW (3 h): 189.5 g
APTT (3 h): 17.3 s
Bas (3 h): 0%
Eos (3 h): 0.6%
Fbg (3 h): 232.5 mg/dL
Hb (3 h): 13.5 g/dL
Ht (3 h): 41%
Lym (3 h): 71.2%
MCH (3 h): 21.6 pg
MCHC (3 h): 33%
MCV (3 h): 65.4 fL
Mono (3 h): 8.6%
Neu (3 h): 20%
PT (3 h): 12.4 s
Plat (3 h): 115.5 x10_4/uL
RBC (3 h): 627 x10_4/ul
Ret (3 h): 9.5%
WBC (3 h): 129.7 x10_2/uL
KIDNEY_L (3 h): 0.8 g
KIDNEY_R (3 h): 0.8 g
KIDNEY_TOTAL (3 h): 1.7 g
LIVER (3 h): 8.7 g
A/G (3 h): 2
ALP (3 h): 923 IU/L
ALT (3 h): 36 IU/L
AST (3 h): 73.6 IU/L
BUN (3 h): 13.6 mg/dL
CRE (3 h): 0.5 mg/dL
Ca (3 h): 10.9 mg/dL
Cl (3 h): 104.6 meq/L
DBIL (3 h): 0 mg/dL
GLC (3 h): 169.2 mg/dL
IP (3 h): 9.7 mg/dL
K (3 h): 4.4 meq/L
LDH (3 h): 200.6 IU/L
Na (3 h): 139.6 meq/L
PL (3 h): 137.6 mg/dL
RALB (3 h): 3.8 g/dL
TBIL (3 h): 0.4 mg/dL
TC (3 h): 84 mg/dL
TG (3 h): 54.8 mg/dL
TP (3 h): 5.6 g/dL
gamma-GTP (3 h): 2 IU/L
TERMINAL_BW (6 h): 187 g
APTT (6 h): 17.2 s
Bas (6 h): 0%
Eos (6 h): 0.2%
Fbg (6 h): 230.4 mg/dL
Hb (6 h): 13.7 g/dL
Ht (6 h): 41.3%
Lym (6 h): 71%
MCH (6 h): 21.8 pg
MCHC (6 h): 33.1%
MCV (6 h): 66 fL
Mono (6 h): 6.2%
Neu (6 h): 22.2%
PT (6 h): 12.9 s
Plat (6 h): 104.7 x10_4/uL
RBC (6 h): 627.2 x10_4/ul
Ret (6 h): 9.9%
WBC (6 h): 118 x10_2/uL
KIDNEY_L (6 h): 0.8 g
KIDNEY_R (6 h): 0.8 g
KIDNEY_TOTAL (6 h): 1.6 g
LIVER (6 h): 8 g
A/G (6 h): 1.9
ALP (6 h): 836.6 IU/L
ALT (6 h): 33.8 IU/L
AST (6 h): 75.2 IU/L
BUN (6 h): 10.2 mg/dL
CRE (6 h): 0.6 mg/dL
Ca (6 h): 10.4 mg/dL
Cl (6 h): 104.4 meq/L
DBIL (6 h): 0.024 mg/dL
GLC (6 h): 162.4 mg/dL
IP (6 h): 9.9 mg/dL
K (6 h): 4.7 meq/L
LDH (6 h): 155.4 IU/L
Na (6 h): 138.2 meq/L
PL (6 h): 129.8 mg/dL
RALB (6 h): 3.6 g/dL
TBIL (6 h): 0.4 mg/dL
TC (6 h): 79.4 mg/dL
TG (6 h): 34.8 mg/dL
TP (6 h): 5.5 g/dL
gamma-GTP (6 h): 1.8 IU/L
TERMINAL_BW (9 h): 189.4 g
APTT (9 h): 17 s
Bas (9 h): 0%
Eos (9 h): 0.6%
Fbg (9 h): 224.4 mg/dL
Hb (9 h): 13.1 g/dL
Ht (9 h): 39.6%
Lym (9 h): 71%
MCH (9 h): 21.8 pg
MCHC (9 h): 33%
MCV (9 h): 66 fL
Mono (9 h): 7.4%
Neu (9 h): 21%
PT (9 h): 14.1 s
Plat (9 h): 100.8 x10_4/uL
RBC (9 h): 600 x10_4/ul
Ret (9 h): 10%
WBC (9 h): 126.2 x10_2/uL
KIDNEY_L (9 h): 0.8 g
KIDNEY_R (9 h): 0.9 g
KIDNEY_TOTAL (9 h): 1.7 g
LIVER (9 h): 8 g
A/G (9 h): 2
ALP (9 h): 886 IU/L
ALT (9 h): 41.2 IU/L
AST (9 h): 93.2 IU/L
BUN (9 h): 12.6 mg/dL
CRE (9 h): 0.5 mg/dL
Ca (9 h): 10.4 mg/dL
Cl (9 h): 104.6 meq/L
DBIL (9 h): 0.008 mg/dL
GLC (9 h): 168.4 mg/dL
IP (9 h): 10.4 mg/dL
K (9 h): 4.4 meq/L
LDH (9 h): 229.2 IU/L
Na (9 h): 137.4 meq/L
PL (9 h): 134.8 mg/dL
RALB (9 h): 3.6 g/dL
TBIL (9 h): 0.4 mg/dL
TC (9 h): 84.8 mg/dL
TG (9 h): 32.4 mg/dL
TP (9 h): 5.4 g/dL
gamma-GTP (9 h): 1.8 IU/L
TERMINAL_BW (24 h): 186.6 g
APTT (24 h): 21.2 s
Bas (24 h): 0%
Eos (24 h): 0.6%
Fbg (24 h): 232 mg/dL
Hb (24 h): 14.7 g/dL
Ht (24 h): 44.9%
Lym (24 h): 69.8%
MCH (24 h): 21.2 pg
MCHC (24 h): 32.8%
MCV (24 h): 64.6 fL
Mono (24 h): 1.8%
Neu (24 h): 27.8%
PT (24 h): 15.7 s
Plat (24 h): 104.8 x10_4/uL
RBC (24 h): 695.6 x10_4/ul
Ret (24 h): 9%
WBC (24 h): 91 x10_2/uL
KIDNEY_L (24 h): 0.9 g
KIDNEY_R (24 h): 0.9 g
KIDNEY_TOTAL (24 h): 1.8 g
LIVER (24 h): 9.3 g
A/G (24 h): 2
ALP (24 h): 1017.6 IU/L
ALT (24 h): 137.2 IU/L
AST (24 h): 713.8 IU/L
BUN (24 h): 15.2 mg/dL
CRE (24 h): 0.5 mg/dL
Ca (24 h): 10.4 mg/dL
Cl (24 h): 102.4 meq/L
DBIL (24 h): 0.046 mg/dL
GLC (24 h): 152 mg/dL
IP (24 h): 8.5 mg/dL
K (24 h): 4.7 meq/L
LDH (24 h): 1117 IU/L
Na (24 h): 135.8 meq/L
PL (24 h): 142 mg/dL
RALB (24 h): 3.8 g/dL
TBIL (24 h): 0.3 mg/dL
TC (24 h): 86.8 mg/dL
TG (24 h): 64.6 mg/dL
TP (24 h): 5.8 g/dL
gamma-GTP (24 h): 1 IU/L
